Tests used:
AZD6482 + Dasatinib = compound: Cc1cc([C@@H](C)Nc2ccccc2C(=O)O)c2nc(N3CCOCC3)cc(=O)n2c1 [AZD6482] + Cc1nc(Nc2ncc(C(=O)Nc3c(C)cccc3Cl)s2)cc(N2CCN(CCO)CC2)n1 [Dasatinib] (partner 0.075 µM); assay: relative viability (nuclei count vs DMSO), 5 days (fraction); higher = more cells survive
Outline: (§1)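 Values are medians from duplicate plates. Each reflects relative viability, defined as the nuclei count of treated wells over that of vehicle wells. Lung cancer cell lines in 1536-well plates were pin-tool dosed one day after seeding with one drug alone or with a fixed anchor-drug dose plus five library-drug doses (not always all listed) in √10 steps, then fixed, stained and imaged at 4× after 5 days.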

[1] = compound: COc1cc2nc(N3CCCN(C)CC3)nc(NC3CCN(Cc4ccccc4)CC3)c2cc1OC + CC(=O)Nc1cccc(-n2c(=O)n(C3CC3)c(=O)c3c(Nc4ccc(I)cc4F)n(C)c(=O)c(C)c32)c1 [Trametinib] (partner 0.02 µM); assay: as above
Outline: as §1

Cell Line | relative viability (AZD6482 + Dasatinib; first compound 0.08 µM) | relative viability (AZD6482 + Dasatinib; first compound 0.253 µM) | relative viability (AZD6482 + Dasatinib; first compound 0.8 µM) | relative viability (AZD6482 + Dasatinib; first compound 2.53 µM) | relative viability (AZD6482 + Dasatinib; first compound 8 µM) | relative viability ([1]; first compound 0.2 µM) | relative viability ([1]; first compound 0.6325 µM) | relative viability ([1]; first compound 2 µM) | relative viability ([1]; first compound 6.325 µM)
HCC-366 | 0.659 | 0.564 | 0.733 | 0.271 | 0.482 | 0.335 | 0.401 | 0.358 | 0.239
EMC-BAC-2 | 0.253 | 0.327 | 0.275 | 0.257 | 0.271 | 0.873 | 0.857 | 0.899 | 0.732
NCI-H2405 | 0.161 | – | 0.232 | 0.206 | 0.191 | 0.652 | 0.604 | 0.676 | 0.591
NCI-H358 | 0.151 | 0.186 | 0.132 | 0.0881 | 0.153 | 0.132 | 0.16 | 0.121 | 0.126
NCI-H1944 | 0.223 | 0.191 | 0.238 | 0.172 | 0.182 | 0.437 | 0.423 | 0.379 | 0.414
NCI-H1648 | – | – | – | – | – | – | 0.511 | – | 0.532
EPLC-272H | 0.253 | 0.291 | 0.311 | 0.172 | 0.124 | 0.292 | 0.333 | 0.268 | 0.278
NCI-H1915 | 0.298 | 0.289 | 0.329 | 0.286 | 0.296 | 0.309 | 0.295 | 0.309 | 0.277
NCI-H596 | 0.7 | 0.586 | 0.601 | 0.514 | 0.642 | 0.748 | 0.765 | 0.822 | 0.655
NCI-H322M | 0.261 | 0.249 | 0.27 | 0.207 | 0.242 | 0.503 | 0.495 | 0.531 | 0.512
NCI-H2228 | – | 0.367 | 0.461 | 0.427 | 0.455 | 0.561 | 0.565 | 0.403 | 0.395
NCI-H2342 | 0.301 | 0.292 | 0.34 | 0.277 | 0.31 | 0.916 | 0.963 | 0.818 | 0.803
NCI-H647 | 0.133 | 0.152 | 0.153 | 0.0999 | 0.096 | 0.514 | 0.495 | 0.527 | 0.238
SK-MES-1 | 0.179 | 0.235 | 0.169 | 0.125 | 0.168 | 0.597 | 0.56 | 0.599 | 0.471
NCI-H2170 | 0.482 | 0.424 | 0.585 | 0.544 | 0.486 | 0.989 | 0.856 | 0.959 | 0.948
NCI-H2085 | 0.203 | 0.159 | 0.21 | 0.198 | 0.216 | 0.504 | 0.504 | 0.612 | 0.525
SW 1573 | 0.459 | 0.357 | 0.328 | 0.239 | 0.206 | 0.446 | 0.518 | 0.572 | 0.368
NCI-H727 | 0.401 | 0.41 | 0.41 | 0.266 | 0.395 | 0.425 | 0.368 | 0.373 | 0.361

Cell Line | relative viability (AZD6482 + Dasatinib; first compound 0.08 µM) | relative viability (AZD6482 + Dasatinib; first compound 0.253 µM) | relative viability (AZD6482 + Dasatinib; first compound 0.8 µM) | relative viability (AZD6482 + Dasatinib; first compound 2.53 µM) | relative viability (AZD6482 + Dasatinib; first compound 8 µM) | relative viability ([1]; first compound 0.2 µM) | relative viability ([1]; first compound 0.6325 µM) | relative viability ([1]; first compound 2 µM) | relative viability ([1]; first compound 6.325 µM)
NCI-H441 | 0.568 | 0.592 | 0.704 | – | 0.502 | 0.366 | 0.532 | 0.422 | 0.33
LOU-NH91 | 0.394 | 0.486 | 0.577 | 0.406 | 0.376 | 0.801 | 0.778 | 0.781 | 0.811
NCI-H3122 | 0.775 | 0.828 | 0.94 | 0.361 | 0.695 | 0.239 | 0.199 | 0.197 | 0.208
NCI-H460 | 0.414 | 0.404 | 0.562 | 0.241 | 0.215 | 0.13 | 0.16 | 0.107 | 0.0898
NCI-H650 | 0.446 | – | 0.453 | 0.292 | 0.319 | 1.01 | 1.06 | 1 | 0.978
NCI-H661 | 0.75 | 0.857 | 0.967 | 0.502 | 0.489 | 0.612 | 0.563 | 0.648 | 0.586
NCI-H1793 | 0.387 | 0.34 | 0.351 | 0.249 | 0.358 | 0.374 | 0.39 | 0.412 | 0.373
NCI-H1734 | 0.459 | 0.406 | 0.424 | 0.267 | 0.338 | 0.657 | 0.697 | 0.738 | 0.552
LXF-289 | 0.188 | 0.15 | 0.193 | 0.106 | 0.123 | 0.651 | 0.701 | 0.634 | 0.625
H3255 | 0.339 | 0.342 | 0.476 | 0.345 | 0.322 | 0.593 | 0.607 | 0.554 | 0.537
201T | 0.645 | 0.542 | 0.627 | 0.416 | 0.395 | 0.701 | 0.702 | 0.71 | 0.675
NCI-H2126 | 0.542 | 0.578 | 0.568 | 0.284 | 0.317 | 0.532 | 0.572 | 0.513 | 0.508
HOP-62 | 0.428 | 0.528 | 0.572 | 0.299 | 0.349 | 0.396 | 0.434 | 0.459 | 0.361
CAL-12T | 0.403 | 0.393 | 0.332 | 0.21 | 0.171 | 0.324 | 0.329 | 0.302 | 0.266
NCI-H520 | 0.154 | 0.153 | 0.138 | 0.144 | 0.166 | 0.744 | 0.637 | 0.674 | 0.176
NCI-H1755 | 0.299 | 0.379 | 0.385 | 0.288 | 0.299 | 0.797 | 0.75 | 0.713 | 0.746
NCI-H2023 | 0.454 | 0.494 | 0.566 | 0.3 | 0.423 | 0.598 | 0.577 | 0.501 | 0.116
NCI-H2009 | 0.2 | 0.232 | 0.218 | 0.165 | 0.183 | 0.277 | 0.305 | 0.323 | 0.289

Source: the supplement of paper PMC10307832
